We go through nine molecules from US20260132132A1, “3A,4,5,6-TETRAHYDRO-1 H-PYRAZOLO[3,4-C]PYRIDIN-7(7AH)-ONE DERIVATIVES AS FACTOR XIIA INHIBITORS” (KALVISTA PHARMACEUTICALS LIMITED, priority 2022, published 2026).

pIC50: −log10 of the molar value.

The nature of series [1]: Pharmacokinetics following a single intravenous dose and a single oral dose in rats. The class given is in vivo. The following applies: rat, male Sprague-Dawley rats, single iv dose (nominal 1 mg/kg) and single oral dose (nominal 5 mg/kg) in 10% DMSO/10% Cremophor EL/80% SWFI, plasma by LCMS, Phoenix WinNonlin; for bioavailability: read-out: F % (oral bioavailability); for half-life: route for T½ not stated. The protocol:
Pharmacokinetic studies of the compounds in Table 10 were performed to assess the pharmacokinetics following a single intravenous dose and a single oral dose in male Sprague-Dawley rats. Two rats were given a single intravenous dose of 1 ml/kg of a nominal 1 mg/ml (1 mg/kg) composition of test compound in 10% DMSO/10% Cremophor EL/80% SWFI vehicle. Two rats were given a single oral dose of 5 mL/kg of a nominal 1 mg/ml (5 mg/kg) composition of test compound in 10% DMSO/10% Cremophor EL/80% SWFI vehicle.
Following intravenous dosing, blood samples were collected over a period of 12 h. Sample times were 2, 5, 15 and 30 min then 1, 2, 4, 6, and 12 h. Following oral dosing, blood samples were collected over a period of 24 h. Sample times were 5, 15 and 30 min then 1, 2, 4, 6, 8, 12 and 24 h.
Following collection, blood samples were centrifuged and the plasma fraction analysed for concentration of test compound by LCMS. Oral bioavailability and half-life calculations from these studies were obtained using Phoenix WinNonlin (v8.0) and are shown below: […]

Another series addresses FXa (Homo sapiens, UniProt P00742). The experiment in a line: Related protease inhibition: FXa, fluorogenic substrate. The class given is biochemical. The note with it: fluorogenic substrate at Km, 25° C., H1-H3 = % activity at 40 μM; for activity at 40 µM: read-out: IC50 (human FXa) nM. The protocol: (§1) Human serine protease enzyme Plasma Kallikrein, KLK1, FXa, Plasmin, Thrombin and Trypsin were assayed for enzymatic activity using an appropriate fluorogenic substrate at Km concentration, FXIa at fixed substrate concentration of 100 μM and various concentrations of the test compound.

In series [2] the target is T1, Human Factor XIIa (hFXIIa) (Homo sapiens, UniProt P00748).
T1 construct: purchased Enzyme Research Laboratories
T1 sequence (P00748 373-615 limits assumed): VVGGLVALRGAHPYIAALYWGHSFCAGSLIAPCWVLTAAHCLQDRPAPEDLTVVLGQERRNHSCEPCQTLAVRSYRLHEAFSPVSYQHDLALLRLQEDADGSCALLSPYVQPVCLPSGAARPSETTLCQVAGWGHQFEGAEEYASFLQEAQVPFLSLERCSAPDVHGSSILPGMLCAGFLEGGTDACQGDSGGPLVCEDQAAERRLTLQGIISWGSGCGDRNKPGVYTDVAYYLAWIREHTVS
T1 sequence (P00748 20-372 partner limits assumed): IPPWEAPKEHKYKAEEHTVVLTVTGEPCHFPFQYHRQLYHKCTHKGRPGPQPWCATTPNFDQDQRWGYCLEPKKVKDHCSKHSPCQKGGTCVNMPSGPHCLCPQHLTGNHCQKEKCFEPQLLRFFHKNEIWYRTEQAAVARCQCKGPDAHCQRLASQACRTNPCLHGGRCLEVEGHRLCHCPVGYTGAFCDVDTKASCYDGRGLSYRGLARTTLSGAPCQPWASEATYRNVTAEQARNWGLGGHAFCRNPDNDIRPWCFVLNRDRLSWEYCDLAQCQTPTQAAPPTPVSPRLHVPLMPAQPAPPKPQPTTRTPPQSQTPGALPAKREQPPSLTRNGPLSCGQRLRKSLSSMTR
Kind of series: Determination of Human Factor XIIa (hFXIIa) inhibition, fluorogenic substrate IC50 assay. The class given is biochemical. The following applies: fluorogenic substrate H-DPro-Phe-Arg-AFC at Km, 25° C., read-out: Human FXIIa IC50. The procedure: Determination of Human Factor XIIa (hFXIIa) inhibition
The Km for the cleavage of the substrate by hFXIIa was determined by standard transformation of the Michaelis-Menten equation, with subsequent inhibition assays performed at substrate Km concentration.

For the next series, the target named is Thrombin (Homo sapiens, UniProt P00734). Kind of series: Related protease inhibition: Thrombin, fluorogenic substrate. The class given is biochemical. The note with it: fluorogenic substrate at Km, 25° C.; H1-H3 = % activity at 40 μM; read-out: IC50 (human thrombin) nM. The protocol: as §1
In series [3] the test system is patients with type I/II hereditary angioedema (HAE). The following applies: phase 3 study; monthly prophylactic subcutaneous treatment; cited from earlier work.

FXa, sequence (P00742 235-488 limits assumed): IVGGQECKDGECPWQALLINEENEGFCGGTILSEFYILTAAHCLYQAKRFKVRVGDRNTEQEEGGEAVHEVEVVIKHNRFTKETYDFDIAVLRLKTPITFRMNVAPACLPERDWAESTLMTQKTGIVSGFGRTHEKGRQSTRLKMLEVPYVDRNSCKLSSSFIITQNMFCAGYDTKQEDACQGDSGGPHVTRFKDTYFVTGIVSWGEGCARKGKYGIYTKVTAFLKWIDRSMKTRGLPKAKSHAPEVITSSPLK
FXa, sequence (P00742 41-179 partner limits assumed): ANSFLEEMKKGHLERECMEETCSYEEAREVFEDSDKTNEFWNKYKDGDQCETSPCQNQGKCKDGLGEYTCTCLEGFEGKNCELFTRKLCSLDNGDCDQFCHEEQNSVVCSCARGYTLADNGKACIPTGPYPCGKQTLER

As for `CN1CCc2ccc(N3CCc4c(C(=O)N[C@H](CO)c5ccccc5)nn(-c5cccc(Cl)c5)c4C3=O)cc2C1` [Example 1024, (S)-1-(3-Chlorophenyl)-N-(2-hydroxy-1-phenylethyl)-6-(2-methyl-1,2,3,4-tetrahydroisoquinolin-7-yl)-7-oxo-4,5,6,7-tetrahydro-1H-pyrazolo[3,4-c]pyridine-3-carboxamide], in series [1], the bioavailability (as a rule, the share of a dose that reaches the circulation, judged against a reference dose that is usually intravenous) turned out to be 36% and the half-life (in general, the time needed for the level to fall by half in the phase considered) amounted to 328 min. Moreover, on FXa, the pIC50 – broadly, −log10 of the IC50, conventionally taken in molar units – is 5.52 to 6.00. In series [2], the pIC50 is 6.52 to 7.00.

As to `O=C(NCC1CC1)c1nn(-c2cccc(Cl)c2)c2c1CCN(c1ccc3c(c1)CN(CCO)CC3)C2=O` [Example 1055, 1-(3-Chlorophenyl)-N-(cyclopropylmethyl)-6-(2-(2-hydroxyethyl)-1,2,3,4-tetrahydroisoquinolin-7-yl)-7], in series [1], the bioavailability amounted to 55% and the half-life came out at 277 min. Moreover, the pIC50 against FXa is < 4.40. In series [2], the pIC50 was 7.00 to 8.00.

Regarding `Cc1cc(C)c(CNC(=O)c2nn(-c3cccc(Cl)c3)c3c2CCN(c2ccc4c(c2)CN(CCO)CC4)C3=O)cn1` [Example 1128, 1-(3-Chlorophenyl)-N-((4,6-dimethylpyridin-3-yl)methyl)-6-(2-(2-hydroxyethyl)-1,2,3,4-tetrahydroisoquinolin-7-yl)-7-oxo-4,5,6,7-tetrahydro-1H-pyrazolo[3,4-c]pyridine-3-carboxamide], in series [1], the bioavailability was 27% and the half-life came out at 273 min. Also, the pIC50 against FXa is 4.40 to 5.00. Further, the pIC50 in series [2] is 7.00 to 8.00.

Take `CN1CCc2ccc(N3CCc4c(C(=O)NCC5CC5)nn(-c5cccc(Cl)c5)c4C3=O)cc2C1=O` [Example 1149, 1-(3-chlorophenyl)-N-(cyclopropylmethyl)-6-(2-methyl-1-oxo-1,2,3,4-tetrahydroisoquinolin-7-yl)-7-oxo-4,5,6,7-tetrahydro-1H-pyrazolo[3,4-c]pyridine-3-carboxamide]: the bioavailability in series [1] amounted to 56%. In series [1], this molecule registered a half-life of 133 min. Also, the figures for the negative logarithm of the IC50 (pIC50) (at FXa; in series [2]) were < 4.40 and 6.00 to 6.52, respectively.

As for `Cc1cc(CNC(=O)c2nn(-c3cccc(Cl)c3)c3c2CCN(c2cc4c(cn2)CCN(CCO)C4)C3=O)nn1C` [Example 1220, 1-(3-chlorophenyl)-N-((1,5-dimethyl-1H-pyrazol-3-yl)methyl)-6-(6-(2-hydroxyethyl)-5,6,7,8-tetrahydro-2,6-naphthyridin-3-yl)-7-oxo-4,5,6,7-tetrahydro-1H-pyrazolo[3,4-c]pyridine-3-carboxamide], in series [1], the bioavailability came out at 22% and the half-life amounted to 70 min. The molecule also had a pIC50 against FXa of 4.40 to 5.00. Moreover, the pIC50 in series [2] is 7.00 to 8.00.

With `CN1CCc2ccc(N3CCc4c(C(=O)N[C@@H]5CCOC5)nn(-c5cccc(Cl)c5F)c4C3=O)cc2C1=O` [Example 2039, (R)-1-(3-chloro-2-fluorophenyl)-6-(2-methyl-1-oxo-1,2,3,4-tetrahydroisoquinolin-7-yl)-7-oxo-N-(tetrahydrofuran-3-yl)-4,5,6,7-tetrahydro-1H-pyrazolo[3,4-c]pyridine-3-carboxamide], in series [1], the bioavailability came to 27% and the half-life was determined as 45 min. On FXa, the pIC50 is < 4.40. Further, the pIC50 in series [2] was 6.52 to 7.00.

As to `CN1CCOc2ccc(N3CCc4c(C(=O)N[C@@H]5CCOC5)nn(-c5cccc(Cl)c5F)c4C3=O)cc2C1=O` [Example 2048, (R)-1-(3-chloro-2-fluorophenyl)-6-(4-methyl-5-oxo-2,3,4,5-tetrahydrobenzo[f][1,4]oxazepin-7-yl)-7-oxo-N-(tetrahydrofuran-3-yl)-4,5,6,7-tetrahydro-1H-pyrazolo[3,4-c]pyridine-3-carboxamide], the activity at 40 µM on Thrombin is > 80%. In addition, in series [1], the bioavailability is 57% and the half-life came out at 49 min. Moreover, on FXa, the activity at 40 µM was in the range of 20 to 80%. Further, the pIC50 in series [2] was 7.00 to 8.00.

For `CN1CCOc2ccc(N3CCc4c(C(=O)N[C@@H](CO)C5CC5)nn(-c5cccc(Cl)c5F)c4C3=O)cc2C1=O` [Example 2049, (R)-1-(3-chloro-2-fluorophenyl)-N-(1-cyclopropyl-2-hydroxyethyl)-6-(4-methyl-5-oxo-2,3,4,5-tetrahydrobenzo[f][1,4]oxazepin-7-yl)-7-oxo-4,5,6,7-tetrahydro-1H-pyrazolo[3,4-c]pyridine-3-carboxamide], the activity at 40 µM at Thrombin was > 80%. In addition, in series [1], the bioavailability is 28% and the half-life was determined as 85 min. Further, the activity at 40 µM on FXa is < 20%. The pIC50 in series [2] is 7.00 to 8.00.

In the case of “Garadacimab: "a monoclonal antibody inhibitory against FXIIa"”, the “attacks in patients with type I/II hereditary angioedema (HAE)” value in series [3] is “reduce attacks”.
